How the values were obtained:
Format in all cases: binding, sheep
[1] = system: Polymyxin B derived antibody; assay: Competitive biochip immunoassay, standard curves with Polymyxin B derived antibody and Colistin-based tracer; conditions: for CR (percentage cross-reactivity) / IC50 (standard concentration which produces 50% inhibition of maximal signal): Polymyxin B derived antibody, Colistin-based tracer
Experimental: (§1) The process of developing an immunoassay is well known to the person skilled in the art. Briefly, for a competitive immunoassay in which the target analyte is a non-immunogenic molecule such as a hapten, a general immunoassay development process outlined. Following antibody production, a detecting agent is added to a sample containing the target analyte and the raised antibodies, and the detecting agent and analyte compete for binding to the antibodies. The process may comprise fixing said serum antibodies to a solid state device such as a polystyrene support or a ceramic chip. The antibodies can be polyclonal or monoclonal using standard techniques, but the current invention makes use of polyclonal antibodies. The signal emitted in the immunoassay is proportionate to the quantity of detecting agent bound to the antibodies which in turn is inversely proportionate to the analyte concentration. The signal can be detected or quantified by comparison with a calibrator.
(§2) 175 μl of assay diluent, then 25 μl of Polymyxin diluted in calibrator base was added to the appropriate wells. Biochips spotted with antibody of the invention were incubated for 30 min at 25° C. in a thermo-shaker at 370 rpm. 100 μl Tracer of the invention was added to the appropriate wells. Biochips were incubated for 60 min at 25° C. in a thermo-shaker at 370 rpm. Biochips were washed with TBST (2 quick washes followed by 4 washes at 2 min intervals). Biochips were developed with 250 μl signal: peroxide (1:1) for 2 min in the dark. Biochips were imaged on the Randox Investigator (2×60 sec images). All biochips were manually processed.

Antibody RS2790 = assay: Competitive biochip immunoassay with Polymyxin B-KLH derived antibody RS2790 and Colistin-HRP tracer
Experimental: as §1, §2

Antibody RS2801 = assay: Competitive biochip immunoassay with Polymyxin B-KLH derived antibody RS2801 and Colistin-HRP tracer
Experimental: as §1, §2

Antibody RS2830 = assay: Competitive biochip immunoassay with Polymyxin B-KLH derived antibody RS2830 and Colistin-HRP tracer
Experimental: as §1, §2

[2] = antibody 0.1 mg/ml, Colistin-HRP tracer dilution 1/50K
[3] = antibody 0.1 mg/ml, Colistin-HRP tracer dilution 1/100K
[4] = antibody 0.1 mg/ml, tracer dilution 1/50K
[5] = antibody 0.1 mg/ml, tracer dilution 1/100K
[6] = antibody 0.75 mg/ml, Colistin-HRP tracer dilution 1/50K
[7] = antibody 0.75 mg/ml, Colistin-HRP tracer dilution 1/100K
[8] = antibody 0.75 mg/ml, tracer dilution 1/50K
[9] = antibody 0.75 mg/ml, tracer dilution 1/100K
[10] = antibody 0.1 mg/ml, Colistin-HRP tracer dilution 1/500K
[11] = antibody 0.1 mg/ml, Colistin-HRP tracer dilution 1/1000K
[12] = antibody 0.1 mg/ml, tracer dilution 1/500K
[13] = antibody 0.1 mg/ml, tracer dilution 1/1000K
[14] = antibody 0.75 mg/ml, Colistin-HRP tracer dilution 1/500K
[15] = antibody 0.75 mg/ml, Colistin-HRP tracer dilution 1/1000K
[16] = antibody 0.75 mg/ml, tracer dilution 1/500K
[17] = antibody 0.75 mg/ml, tracer dilution 1/1000K

Substance	CR (percentage cross-reactivity) [1]	IC50 (standard concentration which produces 50% inhibition of maximal signal) [1] [ng/mL]	Relative % Cross-reactivity (Antibody RS2790; [2]) [%]	Relative % Cross-reactivity (Antibody RS2790; [3]) [%]	Relative Binding (IC50) (Antibody RS2790; [4]) [ng/mL]	Relative Binding (IC50) (Antibody RS2790; [5]) [ng/mL]	Relative % Cross-reactivity (Antibody RS2790; [6]) [%]	Relative % Cross-reactivity (Antibody RS2790; [7]) [%]	Relative Binding (IC50) (Antibody RS2790; [8]) [ng/mL]	Relative Binding (IC50) (Antibody RS2790; [9]) [ng/mL]	Relative % Cross-reactivity (Antibody RS2801; [10]) [%]	Relative % Cross-reactivity (Antibody RS2801; [11]) [%]	Relative Binding (IC50) (Antibody RS2801; [12]) [ng/mL]	Relative Binding (IC50) (Antibody RS2801; [13]) [ng/mL]	Relative % Cross-reactivity (Antibody RS2801; [14]) [%]	Relative % Cross-reactivity (Antibody RS2801; [15]) [%]	Relative Binding (IC50) (Antibody RS2801; [16]) [ng/mL]	Relative Binding (IC50) (Antibody RS2801; [17]) [ng/mL]	Relative % Cross-reactivity (Antibody RS2830; [10]) [%]	Relative % Cross-reactivity (Antibody RS2830; [11]) [%]	further results
Colistin	(CR = 80%)	1.191	5	23	3.02	1.60	8	59	1.72	1.01	20	15	0.47	0.78	67	62	0.24	0.22	6	5	B/Bo ([1]; standard conc 0.391 ng/ml): 71%; B/Bo ([1]; standard conc 0.781 ng/ml): 58%; B/Bo ([1]; standard conc 1.563 ng/ml): 44%; B/Bo ([1]; standard conc 3.125 ng/ml): 33%; B/Bo ([1]; standard conc 6.250 ng/ml): 17%; B/Bo ([1]; standard conc 12.500 ng/ml): 11%; B/Bo ([1]; standard conc 25.000 ng/ml): 9%; B/Bo ([1]; standard conc 50.000 ng/ml): 6%; Relative Binding (IC50) (Antibody RS2830; [12]): 2.54 ng/mL; Relative Binding (IC50) (Antibody RS2830; [13]): 3.62 ng/mL; Relative % Cross-reactivity (Antibody RS2830; [14]): 8%; Relative % Cross-reactivity (Antibody RS2830; [15]): 9%; Relative Binding (IC50) (Antibody RS2830; [16]): 2.16 ng/mL; Relative Binding (IC50) (Antibody RS2830; [17]): 2.47 ng/mL
Polymyxin B	(CR = 100%)	0.931	100	100	0.14	0.37	100	100	0.14	0.59	100	100	0.09	0.12	100	100	0.16	0.13	100	100	B/Bo ([1]; standard conc 0.078 ng/ml): 86%; B/Bo ([1]; standard conc 0.156 ng/ml): 78%; B/Bo ([1]; standard conc 0.313 ng/ml): 64%; B/Bo ([1]; standard conc 0.625 ng/ml): 56%; B/Bo ([1]; standard conc 1.250 ng/ml): 51%; B/Bo ([1]; standard conc 2.500 ng/ml): 38%; B/Bo ([1]; standard conc 5.000 ng/ml): 27%; B/Bo ([1]; standard conc 10.000 ng/ml): 16%; Relative Binding (IC50) (Antibody RS2830; [12]): 0.15 ng/mL; Relative Binding (IC50) (Antibody RS2830; [13]): 0.17 ng/mL; Relative % Cross-reactivity (Antibody RS2830; [14]): 100%; Relative % Cross-reactivity (Antibody RS2830; [15]): 100%; Relative Binding (IC50) (Antibody RS2830; [16]): 0.17 ng/mL; Relative Binding (IC50) (Antibody RS2830; [17]): 0.22 ng/mL

— US10620225B2, “Detection of polymyxins” (Randox Laboratories Limited, priority 2014, dated 2020)
